Publication PMC9650428, “Mutagenesis and functional analysis of SotB: A multidrug transporter of the major facilitator superfamily from Escherichia coli” (Frontiers in Microbiology, 2022)
Positions count from the first letter of the chain named. pKd: −log10 of the molar value.

What was measured:
[1] = target: T1, SotB (Escherichia coli, UniProt P31122); assay: SPR affinity assay, wild-type SotB; assay type: binding; conditions: SPR, wild-type SotB immobilised, one-to-one model; read-out: KD (equilibrium dissociation constant), binding affinity with SotB
T1 construct: The full-length sotB and lapC genes from the E. coli MG1655 genome were subcloned into the cloning vector pET28a; 8xHis (C); made in house; host or cells: E. coli C43(DE3)
Protocol: (§1) The instrument used in surface plasmon resonance (SPR) affinity assays was OpenSPR (Nicoya, Canada) and the chip used was COOH sensor chip (Nicoya, Canada). SotB and its variants were as ligands. IPTG, L-arabinose, D-xylose, D-glucose, D-fructose, and D-mannose were as small molecules. Using HSB-EP buffer (10 mM HEPES, 150 mM NaCl, 3 mM EDTA, 0.005% Tween-20, pH7.4) as test buffer and setting flow rate 150 μl/min after installed COOH chip according to OpenSPRTM instrument standard operating procedure. After the signal baseline was reached, loading 200 μl 80% isopropyl alcohol and ran for 10 s to drain bubbles. After reaching baseline, the sample ring was rinsed with HSB-EP buffer and emptied with air. After the signal reached the baseline, loading 200 μl EDC (400 mM, Sigma)/NHS (100 mM, Sigma; 1:1) solution with a flow rate 20 μl/min for 4 min. Then, loading 200 μl ligand (SotB/SotB variants) diluted by the activation buffer (sodium acetate, 10 mM, pH3.5) and ran for 4 min (20 μl/min). Then the sample ring was rinsed with HSB-EP buffer and emptied with air. Loading 200 μl 1 M ethanolamine (Sigma) blocking solution (20 μl/min, 4 min), rinsed the sample ring with HSB-EP buffer, and emptied the sample ring with air. Observing baseline for 5 min to ensure stability. The small molecules were diluted with PBS buffer (2 mM of KH2PO4, 10 mM of Na2HPO4, 2.7 mM of KCl, and 137 mM of NaCl at pH 7.4), and the concentration was shown in the experimental results. The flow rate for small molecules was performed at 20 μl/min. The binding time of small molecule and ligand was 240 s, and the dissociation was 240 s. The analysis software used for the experimental results was TraceDrawer, and the analysis method was one-to-one analysis model.

[2] = system: intact E. coli MG1655 strain; assay: Growth curve (L-arabinose inhibition / D-xylose competition) assay, intact MG1655; assay type: cell-based, Escherichia coli
Excerpt: In the process of sotB gene knockout, two plasmids were introduced into E. coli MG1655 strain: the plasmid pEcCas expressing Cas9 protein (kanamycin resistance) and the plasmid pEcgRNA/sotB expressing related gRNA (spectinomycin resistance). The pEcCas plasmid was successfully eliminated in this study. […] Thus, the sotB-deletion strain has resistance to spectinomycin. In order to carry out the related L-arabinose inhibition assay more strictly, the same plasmid (pEcgRNA/sotB) was then transformed into intact E. coli MG1655 cells, and the growth conditions of the two strains were measured as follows: The E. coli MG1655 cells (intact cells and sotB-deletion cells) were grown in liquid LB medium containing spectinomycin (50 μg/ml) at 37°C for overnight. The cells were then diluted to an OD600 value of 0.8 with liquid LB medium containing spectinomycin (50 μg/ml). Then, the cells were further diluted 1,000 times with liquid LB medium containing spectinomycin (50 μg/ml). The diluted cells were added to a 96-well plate (200 μl/well). Then, L-arabinose was added with final concentrations of 0 μM, 10 μM, 100 μM, 1 mM, 10 mM, and 100 mM, respectively. The 96-well plate was incubated at 37°C, and the OD600 value was measured every 1 h with a microplate reader. For the competition assay, the intact MG1655 cells diluted 1,000 times were divided into two parts and then added into 96-well plate (200 μl/well). One part was directly added with D-xylose at a final concentration of 0, 1, and 10 mM, respectively; the other part was first added with L-arabinose at a final concentration of 10 mM, then D-xylose was added with final concentrations of 0, 1, and 10 mM, respectively. The method of growth curve measurement is the same as above. All the experiments were repeated at least three times.

[3] = target: T2, SotB S339A (Escherichia coli, UniProt P31122, S339A); assay: SPR affinity assay, SotB variant S339A; conditions: read-out: KD, binding affinity with S339A
T2 construct: The full-length sotB and lapC genes from the E. coli MG1655 genome were subcloned into the cloning vector pET28a; 8xHis (C); made in house; host or cells: E. coli C43(DE3)
T2 sequence (P31122 1-396 S339A): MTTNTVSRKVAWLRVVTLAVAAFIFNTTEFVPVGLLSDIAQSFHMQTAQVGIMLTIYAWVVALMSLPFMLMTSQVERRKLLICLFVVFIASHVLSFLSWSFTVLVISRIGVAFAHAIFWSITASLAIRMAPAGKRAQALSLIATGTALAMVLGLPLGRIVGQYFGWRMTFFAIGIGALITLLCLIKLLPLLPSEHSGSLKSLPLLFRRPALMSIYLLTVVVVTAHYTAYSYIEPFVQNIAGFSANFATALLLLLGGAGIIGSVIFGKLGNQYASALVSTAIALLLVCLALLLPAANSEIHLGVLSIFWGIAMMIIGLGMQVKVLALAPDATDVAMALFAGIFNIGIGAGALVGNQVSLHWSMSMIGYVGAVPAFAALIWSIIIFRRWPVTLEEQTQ
Protocol: as §1, with “The small molecules were diluted with PBS buffer (2 mM of KH2PO4, 10 mM of Na2HPO4, 2.7 mM of KCl, and 137 mM of NaCl at pH 7.4), and the concentration was shown in the experimental results. The flow rate for small molecules was performed at 20 μl/min. The binding time of small molecule and ligand was 240 s, and the dissociation was 240 s. The analysis software used for the experimental results was TraceDrawer, and the analysis method was one-to-one analysis model.” left out

[4] = target: T3, SotB H115A (Escherichia coli, UniProt P31122, H115A); assay: SPR affinity assay, SotB variant H115A; assay type: binding
T3 construct: The full-length sotB and lapC genes from the E. coli MG1655 genome were subcloned into the cloning vector pET28a; 8xHis (C); made in house; host or cells: E. coli C43(DE3)
T3 sequence (P31122 1-396 H115A): T2 sequence (P31122 1-396 S339A) with H115A, A339S
Protocol: as §1

T1 sequence (P31122 whole entry): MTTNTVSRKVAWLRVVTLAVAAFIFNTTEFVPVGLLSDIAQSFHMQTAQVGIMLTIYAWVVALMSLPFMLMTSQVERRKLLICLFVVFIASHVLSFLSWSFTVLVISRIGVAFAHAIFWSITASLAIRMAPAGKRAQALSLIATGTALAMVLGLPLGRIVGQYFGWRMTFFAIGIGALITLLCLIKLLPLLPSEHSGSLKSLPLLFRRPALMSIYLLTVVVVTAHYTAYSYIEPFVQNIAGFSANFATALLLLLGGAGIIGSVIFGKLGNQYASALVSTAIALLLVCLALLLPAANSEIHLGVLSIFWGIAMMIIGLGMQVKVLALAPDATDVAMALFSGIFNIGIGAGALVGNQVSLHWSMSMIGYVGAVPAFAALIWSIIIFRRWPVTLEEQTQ

OC1OC[C@H](O)[C@H](O)[C@H]1O (mixture of isomers) [L-arabinose]
pKd [1]: 2.39
Growth of intact MG1655 compared to sotB-deletion MG1655 ([2]; in the presence of 1 mM L-arabinose): grew better
Effect on growth (OD600 growth curve) ([2]; intact MG1655, 10 mM final concentration): significantly inhibit
Effect on growth (OD600 growth curve) ([2]; intact MG1655, 100 mM final concentration): significantly inhibit
pKd [3]: 2.46
Binding affinity of H115A, fold lower than the wild-type protein ([4]; H115A vs wild-type SotB): 3.2 fold
pKd ([4]; SotB variant H115A, read-out: KD, binding affinity with H115A): 1.88
